The values below come from PMC10353189, “Hybridization of the effective pharmacophores for treatment of epilepsy: design, synthesis, in vivo anticonvulsant activity, and in silico studies of phenoxyphenyl-1,3,4-oxadiazole-thio-N-phenylacetamid hybrids” (BMC Chemistry, 2023).

Test [1] deals with PTZ-induced lethal convulsion in mice. The experiment in a line: Pentylenetetrazole (PTZ) induced seizure test. It counts as in vivo, Male NMRI mice. Conditions: Mus musculus; for responders at 2 mg/kg: dose 2 mg/kg ip; for responders at 1 mg/kg: dose 1 mg/kg ip.
Test [2] relates to MES-induced seizure in mice. The experiment in a line: Maximal electroshock (MES) induced seizure test. Type of test: in vivo, Male NMRI mice. Particulars: for responders at 2 mg/kg / responders at 5 mg/kg / responders at 10 mg/kg / responders at 1 mg/kg / responders at 50 mg/kg: Mus musculus; for responders at 5 mg/kg: dose 5 mg/kg ip; for responders at 10 mg/kg: dose 10 mg/kg ip; for responders at 1 mg/kg: dose 1 mg/kg ip; for responders at 50 mg/kg: dose 50 mg/kg ip. For orientation: In the maximal electroshock model the usual endpoint is tonic extension of the hind limbs.

Setting [3] is: 30 min before PTZ 100 mg/kg ip, read-out: PTZ Number of animals protected / Number of tested animals.
Where [4] appears, read: PTZ 100 mg/kg ip, read-out: PTZ %Protection.
Where [5] appears, read: dose 2 mg/kg ip, MES 50 mA, 60 Hz, 0.2 s, read-out: MES Number of animals protected / Number of tested animals (converted).
The mark [6] stands for this setting: dose 2 mg/kg ip, read-out: MES %Protection.
Where [7] appears, read: MES 50 mA, 60 Hz, 0.2 s, read-out: MES Number of animals protected / Number of tested animals (converted).

Like-named read-outs stand apart in the source and are kept apart here.

Turning to `O=C(CSc1nnc(-c2ccccc2Oc2ccccc2)o1)Nc1ccccc1[N+](=O)[O-]` [Compound 8k, N-(2-nitrophenyl)-2-((5-(2-phenoxyphenyl)-1,3,4-oxadiazol-2-yl)thio)acetamide], the responders at 2 mg/kg in test [1] (setting [3]) was 0%; in test [1] (setting [4]) it was 0%; in test [2] (setting [5]), 75%; in test [2] (setting [6]) it was 75%. The responders at 5 mg/kg in test [2] (setting [7]) and in test [2] (read-out: MES %Protection) was 75% each time. Moreover, the responders at 10 mg/kg in test [2] (setting [7]) and in test [2] (read-out: MES %Protection) was 50% in each case. Besides, the “MES Number of animals protected / Number of tested animals” value in test [2] (dose 2 mg/kg ip, with flumazenil 1 mg/kg ip 15 min before seizure induction) was 0/4.
As for `Cc1c(NC(=O)CSc2nnc(-c3ccccc3Oc3ccccc3)o2)cccc1[N+](=O)[O-]` [Compound 8m, N-(2-methyl-3-nitrophenyl)-2-((5-(2-phenoxyphenyl)-1,3,4-oxadiazol-2-yl)thio)acetamide], the responders at 1 mg/kg in test [1] (setting [3]) was 0%; in test [1] (setting [4]), 0%; in test [2] (setting [7]), 25%; in test [2] (read-out: MES %Protection), 25%. The responders at 2 mg/kg in test [2] (setting [5]) and in test [2] (setting [6]) was 50% in each case. Moreover, the responders at 10 mg/kg in test [2] (setting [7]) and in test [2] (read-out: MES %Protection) was 0% in each case. Also, the responders at 50 mg/kg in test [2] (MES 50 mA, 60 Hz, 0.2 s, read-out: MES Number of animals protected / Number of tested animals) was 0%; in test [2] (read-out: MES %Protection) it was 0%.
